Laboratory results from PMC12621043, “Un-LOK-ing a New Approach for Conformational Selective Targeting of STK10 (LOK)” (ACS Medicinal Chemistry Letters, 2025).

Experiments:
Experiment in all cases: DSF Tm panel
Assay type in all cases: binding
Conditions in all cases: 10 μM compound
[1] = target: T1, FGFR1B (Homo sapiens, UniProt P11362)
T1 construct: purchased in-house DSF kinase panel (SGC-style construct names; the trailing letter is the construct ID)
Procedure: (§1) The synthesized urea-based derivatives were evaluated in a panel of kinases by differential scanning fluorescence (DSF) to investigate their selectivity profile. A positive ΔT m in the DSF assay indicates stabilization of the protein upon ligand binding in comparison to its apo state, with higher thermal shifts generally correlating with stronger binding. For this purpose, we used our internal kinase selectivity panel (∼90 kinases) along with staurosporine as a positive control. […] This was also reflected in the overall low selectivity score (S) throughout the series, which is determined by the ratio between the number of kinases that are stabilized above 5 °C and the total number of kinases tested (Figure ). Motivated by these findings, we further validated the entire series by orthogonal binding and activity assays to determine the in vitro and cellular potency and selectivity of the developed series in comparison to the selected reference compounds. […]
(§2) was performed as previously described.[1,2] Briefly, recombinant protein kinase domains at a concentration of 2 μM were mixed with 10 μM compound in a buffer containing 20 mM HEPES, […]
(§3) probe (1 µl per mL). Subsequently, temperature-dependent protein unfolding profiles were […]
(§4) emission filters were set to 465 nm and 590 nm, respectively. The temperature was raised with a step rate of 3 °C per minute. […]
(§5) inflection point of the transition curve. […]
(§6) previously.[3] In brief, STK10, STK3, STK4 and SLK were obtained as plasmids cloned in […]
(§7) Plasmids were transfected into
(§8) KD concentration taken from TracerDB (tracerdb.org)[4] were pipetted into white 384-well

[2] = target: T2, CAMK1DA (Homo sapiens, UniProt Q8IU85)
T2 construct: purchased in-house DSF kinase panel (SGC-style construct names; the trailing letter is the construct ID)
Procedure: as §1, §2, §3, §4, §5, §6, §7, §8

[3] = target: T3, MAP2K4A (Homo sapiens, UniProt P45985)
T3 construct: purchased in-house DSF kinase panel (SGC-style construct names; the trailing letter is the construct ID)
T3 sequence (P45985 102-367): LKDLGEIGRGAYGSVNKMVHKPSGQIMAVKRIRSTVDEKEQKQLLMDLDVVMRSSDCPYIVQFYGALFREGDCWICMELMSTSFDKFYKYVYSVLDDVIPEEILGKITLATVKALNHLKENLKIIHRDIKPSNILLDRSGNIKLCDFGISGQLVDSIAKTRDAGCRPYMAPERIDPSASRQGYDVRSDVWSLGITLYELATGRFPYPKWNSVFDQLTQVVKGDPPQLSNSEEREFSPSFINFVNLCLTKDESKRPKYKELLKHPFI
Procedure: as §1, §2, §3, §4, §5, §6, §7, §8

[4] = target: T4, CLK3A (Homo sapiens, UniProt P49761)
T4 construct: purchased in-house DSF kinase panel (SGC-style construct names; the trailing letter is the construct ID)
Procedure: as §1, §2, §3, §4, §5, §6, §7, §8

[5] = target: T5, PAK1A (Homo sapiens, UniProt Q13153)
T5 construct: purchased in-house DSF kinase panel (SGC-style construct names; the trailing letter is the construct ID)
Procedure: as §1, §2, §3, §4, §5, §6, §7, §8

[6] = target: T6, MAP2K1A (Homo sapiens, UniProt Q02750)
T6 construct: purchased in-house DSF kinase panel (SGC-style construct names; the trailing letter is the construct ID)
Procedure: as §1, §2, §3, §4, §5, §6, §7, §8

[7] = target: T7, SRCA (Homo sapiens, UniProt P12931)
T7 construct: purchased in-house DSF kinase panel (SGC-style construct names; the trailing letter is the construct ID)
Procedure: as §1, §2, §3, §4, §5, §6, §7, §8

[8] = test system: TAF1A
Procedure: as §1, §2, §3, §4, §5, §6, §7, §8

[9] = target: T8, BMX (BMXA) (Homo sapiens, UniProt P51813)
T8 construct: purchased in-house DSF kinase panel (SGC-style construct names; the trailing letter is the construct ID)
Procedure: as §1, §2, §3, §4, §5, §6, §7, §8

[10] = target: T9, ULK1A (Homo sapiens, UniProt O75385)
T9 construct: purchased in-house DSF kinase panel (SGC-style construct names; the trailing letter is the construct ID)
T9 sequence (O75385 1-283): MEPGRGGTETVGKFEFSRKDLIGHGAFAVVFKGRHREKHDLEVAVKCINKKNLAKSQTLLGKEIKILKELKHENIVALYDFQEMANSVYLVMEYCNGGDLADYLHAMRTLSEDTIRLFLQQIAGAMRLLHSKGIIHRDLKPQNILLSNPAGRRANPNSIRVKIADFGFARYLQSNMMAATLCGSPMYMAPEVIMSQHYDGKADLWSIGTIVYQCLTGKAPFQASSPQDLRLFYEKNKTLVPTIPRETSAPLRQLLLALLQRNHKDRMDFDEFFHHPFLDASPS
Procedure: as §1, §2, §3, §4, §5, §6, §7, §8

[11] = target: T10, PIM3A (Homo sapiens, UniProt Q86V86)
T10 construct: purchased in-house DSF kinase panel (SGC-style construct names; the trailing letter is the construct ID)
Procedure: as §1, §2, §3, §4, §5, §6, §7, §8

[12] = target: T11, CHEK2A (Homo sapiens, UniProt O96017)
T11 construct: purchased in-house DSF kinase panel (SGC-style construct names; the trailing letter is the construct ID)
Procedure: as §1, §2, §3, §4, §5, §6, §7, §8

[13] = target: T12, GSK3BB (Homo sapiens, UniProt P49841)
T12 construct: purchased in-house DSF kinase panel (SGC-style construct names; the trailing letter is the construct ID)
Procedure: as §1, §2, §3, §4, §5, §6, §7, §8

[14] = target: T13, EPHA5A (Homo sapiens, UniProt P54756)
T13 construct: purchased in-house DSF kinase panel (SGC-style construct names; the trailing letter is the construct ID)
T13 sequence (P54756 653-939): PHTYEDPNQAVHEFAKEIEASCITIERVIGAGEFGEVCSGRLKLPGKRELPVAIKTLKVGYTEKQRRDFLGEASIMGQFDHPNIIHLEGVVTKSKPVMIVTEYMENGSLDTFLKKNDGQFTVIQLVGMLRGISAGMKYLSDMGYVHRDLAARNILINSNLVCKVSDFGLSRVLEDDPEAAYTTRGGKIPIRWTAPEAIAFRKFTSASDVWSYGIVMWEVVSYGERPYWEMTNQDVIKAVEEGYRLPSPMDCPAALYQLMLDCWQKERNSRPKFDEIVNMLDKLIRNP
Procedure: as §1, §2, §3, §4, §5, §6, §7, §8

[15] = target: T14, GAKA (Homo sapiens, UniProt O14976)
T14 construct: purchased in-house DSF kinase panel (SGC-style construct names; the trailing letter is the construct ID)
T14 sequence (O14976 14-351): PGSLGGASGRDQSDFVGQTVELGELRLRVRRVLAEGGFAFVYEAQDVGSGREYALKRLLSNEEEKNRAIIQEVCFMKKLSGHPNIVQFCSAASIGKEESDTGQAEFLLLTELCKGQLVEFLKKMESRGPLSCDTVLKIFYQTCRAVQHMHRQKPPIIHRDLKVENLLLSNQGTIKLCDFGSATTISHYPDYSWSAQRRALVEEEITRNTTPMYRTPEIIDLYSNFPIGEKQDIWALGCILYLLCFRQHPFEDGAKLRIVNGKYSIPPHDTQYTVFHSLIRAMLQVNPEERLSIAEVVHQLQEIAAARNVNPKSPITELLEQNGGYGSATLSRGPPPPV
Procedure: as §1, §2, §3, §4, §5, §6, §7, §8

[16] = target: T15, BRD4 (BRD4A) (Homo sapiens, UniProt O60885)
T15 construct: purchased in-house DSF kinase panel (SGC-style construct names; the trailing letter is the construct ID)
Procedure: as §1, §2, §3, §4, §5, §6, §7, §8

T2 sequence (Q8IU85 whole entry): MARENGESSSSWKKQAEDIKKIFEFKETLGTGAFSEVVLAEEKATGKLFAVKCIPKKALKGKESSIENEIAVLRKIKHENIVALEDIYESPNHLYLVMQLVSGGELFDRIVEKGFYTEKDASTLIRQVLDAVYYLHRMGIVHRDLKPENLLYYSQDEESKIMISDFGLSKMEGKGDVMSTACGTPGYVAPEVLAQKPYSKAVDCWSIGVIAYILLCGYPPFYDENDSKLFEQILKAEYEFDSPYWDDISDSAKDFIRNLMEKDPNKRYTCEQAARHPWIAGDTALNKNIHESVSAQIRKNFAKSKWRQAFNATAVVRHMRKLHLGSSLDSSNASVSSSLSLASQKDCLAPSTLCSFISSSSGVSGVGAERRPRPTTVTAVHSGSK
T12 sequence (P49841 35-386): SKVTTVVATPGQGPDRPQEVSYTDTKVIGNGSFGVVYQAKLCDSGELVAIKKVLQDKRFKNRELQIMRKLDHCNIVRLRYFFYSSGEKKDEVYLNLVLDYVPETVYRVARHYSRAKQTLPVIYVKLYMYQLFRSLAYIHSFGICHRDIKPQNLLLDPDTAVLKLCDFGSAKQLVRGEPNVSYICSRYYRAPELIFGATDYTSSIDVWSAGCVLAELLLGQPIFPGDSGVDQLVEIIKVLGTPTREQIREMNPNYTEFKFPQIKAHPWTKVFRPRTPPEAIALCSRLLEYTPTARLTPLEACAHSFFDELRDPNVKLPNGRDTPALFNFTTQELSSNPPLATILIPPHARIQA
T6 sequence (Q02750 68-361): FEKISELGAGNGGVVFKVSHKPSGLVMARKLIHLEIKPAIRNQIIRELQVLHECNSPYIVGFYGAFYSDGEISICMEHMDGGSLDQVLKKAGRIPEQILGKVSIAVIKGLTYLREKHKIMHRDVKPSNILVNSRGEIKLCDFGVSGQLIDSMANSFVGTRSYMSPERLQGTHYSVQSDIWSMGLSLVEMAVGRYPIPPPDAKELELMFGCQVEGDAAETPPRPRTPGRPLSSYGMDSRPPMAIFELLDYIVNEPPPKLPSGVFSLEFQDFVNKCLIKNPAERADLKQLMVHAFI
T11 sequence (O96017 210-531): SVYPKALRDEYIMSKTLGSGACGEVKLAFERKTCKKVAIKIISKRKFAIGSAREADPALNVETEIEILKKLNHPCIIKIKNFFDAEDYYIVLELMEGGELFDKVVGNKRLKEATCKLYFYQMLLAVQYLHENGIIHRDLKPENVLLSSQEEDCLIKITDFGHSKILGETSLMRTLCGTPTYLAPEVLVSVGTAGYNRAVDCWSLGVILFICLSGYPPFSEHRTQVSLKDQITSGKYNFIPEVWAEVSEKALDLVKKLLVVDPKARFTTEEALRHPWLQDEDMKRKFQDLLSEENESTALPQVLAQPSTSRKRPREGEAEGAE
T1 sequence (P11362 456-767): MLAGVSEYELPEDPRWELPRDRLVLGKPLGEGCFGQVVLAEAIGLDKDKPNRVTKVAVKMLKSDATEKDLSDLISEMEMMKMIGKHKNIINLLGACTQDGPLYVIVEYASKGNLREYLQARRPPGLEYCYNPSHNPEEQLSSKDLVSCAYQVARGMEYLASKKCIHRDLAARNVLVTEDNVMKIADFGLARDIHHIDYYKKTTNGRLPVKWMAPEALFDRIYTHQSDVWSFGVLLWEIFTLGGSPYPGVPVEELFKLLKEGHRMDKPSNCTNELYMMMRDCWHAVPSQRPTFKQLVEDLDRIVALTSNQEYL
T4 sequence (P49761 127-484): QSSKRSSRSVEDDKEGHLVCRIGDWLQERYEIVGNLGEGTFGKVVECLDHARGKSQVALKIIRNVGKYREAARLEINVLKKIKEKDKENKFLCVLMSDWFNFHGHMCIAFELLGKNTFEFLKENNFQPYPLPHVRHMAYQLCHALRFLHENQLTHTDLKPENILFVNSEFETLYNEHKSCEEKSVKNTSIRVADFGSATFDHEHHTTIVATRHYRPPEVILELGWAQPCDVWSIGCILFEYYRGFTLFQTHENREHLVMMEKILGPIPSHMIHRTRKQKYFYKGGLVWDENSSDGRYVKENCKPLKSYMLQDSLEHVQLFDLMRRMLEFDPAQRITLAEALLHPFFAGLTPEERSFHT
T7 sequence (P12931 254-536): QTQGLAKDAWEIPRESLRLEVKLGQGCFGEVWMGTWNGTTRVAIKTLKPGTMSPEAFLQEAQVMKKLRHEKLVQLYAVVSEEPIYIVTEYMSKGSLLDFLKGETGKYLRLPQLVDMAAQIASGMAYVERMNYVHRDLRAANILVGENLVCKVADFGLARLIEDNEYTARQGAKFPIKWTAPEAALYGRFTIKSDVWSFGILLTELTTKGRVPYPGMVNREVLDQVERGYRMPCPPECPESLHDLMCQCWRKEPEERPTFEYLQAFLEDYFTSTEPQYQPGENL
T8 sequence (P51813 411-675): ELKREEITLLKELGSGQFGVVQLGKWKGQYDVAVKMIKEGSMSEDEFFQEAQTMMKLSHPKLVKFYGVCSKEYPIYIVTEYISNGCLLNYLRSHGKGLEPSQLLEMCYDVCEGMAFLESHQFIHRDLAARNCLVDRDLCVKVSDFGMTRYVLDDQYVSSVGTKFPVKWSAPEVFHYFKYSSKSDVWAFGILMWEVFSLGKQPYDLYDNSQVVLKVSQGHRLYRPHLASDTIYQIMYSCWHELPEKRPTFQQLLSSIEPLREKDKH
T5 sequence (Q13153 249-545): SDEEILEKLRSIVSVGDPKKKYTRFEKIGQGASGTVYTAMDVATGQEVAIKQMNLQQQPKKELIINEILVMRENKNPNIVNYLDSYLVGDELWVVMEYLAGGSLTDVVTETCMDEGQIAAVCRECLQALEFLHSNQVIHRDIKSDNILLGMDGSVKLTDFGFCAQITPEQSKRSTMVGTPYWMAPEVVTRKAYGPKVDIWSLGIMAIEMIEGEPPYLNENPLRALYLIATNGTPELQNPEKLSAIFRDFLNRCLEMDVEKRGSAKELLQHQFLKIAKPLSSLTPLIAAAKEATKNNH

Row | SMILES | ΔTm at 10 µM [1] [°C] | ΔTm at 10 µM [2] [°C] | ΔTm at 10 µM [3] [°C] | ΔTm at 10 µM [4] [°C] | ΔTm at 10 µM [5] [°C] | ΔTm at 10 µM [6] [°C] | ΔTm at 10 µM [7] [°C] | ΔTm TAF1A [8] | ΔTm at 10 µM [9] [°C] | ΔTm at 10 µM [10] [°C] | ΔTm at 10 µM [11] [°C] | ΔTm at 10 µM [12] [°C] | ΔTm at 10 µM [13] [°C] | ΔTm at 10 µM [14] [°C] | ΔTm at 10 µM [15] [°C] | ΔTm at 10 µM [16] [°C]
1 | O=C(NCc1ccccc1)Nc1ccc2cc1OCCOCCNc1ccn3ncc-2c3n1 [compound 16] | 2.4 | 0 | 5.2 | 0.3 | 0.1 | -0.1 | 2.5 | 0,4 °C | 1.7 | 0.6 | 2.4 | 6.5 | 1.1 | 0.1 | 6.1 | 0.7
2 | O=C(NCc1ccccc1Cl)Nc1ccc2cc1OCCOCCNc1ccn3ncc-2c3n1 [compound 17] | 0.6 | -0.3 | 5 | 0.1 | 0.6 | -0.2 | 1.8 | 0,5 °C | 1.2 | 0.3 | 2.4 | 5.3 | 1 | 0.1 | 4.8 | 1.3
3 | O=C(NCc1cccc(Cl)c1)Nc1ccc2cc1OCCOCCNc1ccn3ncc-2c3n1 [compound 18] | 2 | 0.4 | 4.1 | 0.3 | 0.7 | 0.2 | 2.6 | 0,5 °C | 1.4 | 0.3 | 3 | 3.6 | 0 | 0.4 | 4.1 | 1.5
4 | O=C(NCc1ccc(Cl)cc1)Nc1ccc2cc1OCCOCCNc1ccn3ncc-2c3n1 [compound 19] | 1.5 | 0.6 | 5.7 | 0.4 | 0.9 | 0.1 | 2.1 | -0,4 °C | 1.4 | 0.4 | 2.4 | 4.5 | 0.6 | 0.3 | 4.4 | 1
5 | O=C(NCc1ccc(Cl)cc1Cl)Nc1ccc2cc1OCCOCCNc1ccn3ncc-2c3n1 [compound 20] | 0.9 | 1 | 3.9 | 0.3 | 2.5 | 0.8 | 1.2 | 0,6 °C | 1.6 | 0.6 | 3.3 | 3.6 | 0.6 | 0.7 | 2.4 | 1.8
6 | O=C(NCc1ccc(Cl)cc1F)Nc1ccc2cc1OCCOCCNc1ccn3ncc-2c3n1 [compound 21] | 1.1 | 0.8 | 5.4 | 0.6 | 1 | 1.2 | 2.6 | 0,4 °C | 1.4 | 0.2 | 3.9 | 5 | 0.2 | 0.7 | 3.9 | 2
7 | Cc1cc(Cl)ccc1CNC(=O)Nc1ccc2cc1OCCOCCNc1ccn3ncc-2c3n1 [compound 23] | 1.1 | 2.1 | 4.8 | 0.4 | 2 | 0.6 | 1.5 | 0,6 °C | 1.8 | 0.3 | 2.2 | 5.7 | 0.4 | 1 | 2.8 | 2
8 | Cc1cc(Br)ccc1CNC(=O)Nc1ccc2cc1OCCOCCNc1ccn3ncc-2c3n1 [compound 24] | 1.2 | 1.3 | 3.2 | 0.2 | 1.1 | 0.6 | 1.7 | 0,1 °C | 1.8 | 0 | 2.8 | 8.6 | -0.2 | 1.4 | 5.9 | 1.4
